Test results reported in PMC10761396, “Evaluation of new alternative methods for the identification of estrogenic, androgenic and steroidogenic effects: a comparative in vitro/in silico study” (Archives of Toxicology, 2023).
Values after ≈ are worked out from the molar mass of the structure shown. “Also recorded” adds a separate entry of the source. Read-outs that look alike come from different tables or passages of the source.

Experiments:
MCF-7 cells = details: cited from earlier work
ER [1] = test system: ER; set-up: method as in Browne, et al (2015); details: ref Browne, et al (2015), cited from earlier work; for ToxCast Pathway Model (AUC): as agonist where given, value above 0.1 = significant interaction
aromatase [2] = test system: aromatase; set-up: method as in US EPA ToxCast; details: ref US EPA ToxCast, cited from earlier work
AR [3] = test system: AR; set-up: method as in ToxCast; details: ref ToxCast, cited from earlier work; for ToxCast conclusion from assays result: AR sheet; for ToxCast 1: (Active assays), number of positive assays / assays run: ToxCast AR assays
AR [4] = details: cited from earlier work; for ToxCast Pathway Model (AUC): AR pathway model, ref Kleinstreuer et al (2017) 10.1021/acs.chemrestox.6b00347
ER [5] = test: ToxCast ER assays and final ToxCast call; details: for Final "true" call (ToxCast) ER: from active ToxCast assays, cytotoxicity, ToxCast Pathway Model and CERAPP Potency Level; for ToxCast result (ER): overall call from ToxCast data (Supplementary Table 2)
Excerpt: (§1) A rich source of data can be found in the EPA's ToxCast database (US EPA). This contains ED data for ~ 1800 chemicals in more than 700 high-throughput assay endpoints that cover a range of high-level cell responses. The US EPA is running an Endocrine Disruption Screening Program (EDSP), with the aim of prioritising chemicals using high-throughput screening methods and computational toxicology approaches to evaluate thousands of chemicals for ED activities. The OECD framework for ED assessment (OECD [2018]) requires animal testing at higher levels, where relevant in vitro alternatives are missing e.g. for developmental, reproductive, neurological and immune effects. However, such follow-up testing is not possible for the cosmetics industry especially in the EU due to the complete animal testing ban which came into force in March 2013 (EU [2009]). Even for other industries, animal models are not suitable for assessing ED effects due to issues relating to ethics, capacity, speed and relevance (Patisaul et al. [2018]). Therefore, chemicals which cannot be evaluated using in vivo method must be assessed using alternative methods e.g. in silico and in vitro methods listed in Levels 1 and 2 of the framework described in the OECD 150 test guideline (OECD [2018]).
(§2) The performance of different in silico models for ED effects tends to be evaluated on single model for a single effect, such as ER or AR binding, agonism or antagonism (normally by the developer), or a limited number of models using multiple chemicals (Weyrich et al. [2022]). Multi-organisation collaborations have also evaluated multiple models for a specific effect e.g. ER (Mansouri et al. [2016]) and AR (Mansouri et al. [2020]) effects. Therefore, we have conducted a side-by-side comparison of multiple different in silico models covering three pathways in ED, namely ER, AR and aromatase inhibition and compared these with ToxCast-derived final calls, as well as with results from in vitro assays. The efficiency of the in silico models was evaluated as a metric for the ability of the in silico model to generate concrete predictions. […] In vivo data were available for some but not all chemicals; therefore, an evaluation of the performance of the methods was made by comparing the derived overall calls from in silico models with those from the ToxCast database. The final call for each chemical evaluated in the ToxCast assays was made by considering the active-flagged assays and the corresponding cytotoxicity levels, the ToxCast Pathway Model (Browne et al. [2015]) and the CERAPP Potency Level (Mansouri et al. [2016]) for ER effects and the ToxCast Pathway Model (Kleinstreuer et al. [2017]) for AR effects (see Online Resource 1 Supplementary Tables 2, 4 and 6 for the outcome of the ER, AR and aromatase ToxCast assays, additional literature and final calls for each chemical and target).

AR [6] = test: ToxCast AR assays and final ToxCast call; details: for Final "true" call (ToxCast): AR effects, from active assays, cytotoxicity and pathway model
Excerpt: as §1, §2

aromatase [7] = test: ToxCast aromatase assays (TOX21_Aromatase_Inhibition) and final ToxCast call; format: cell-based; details: for ToxCast result: aromatase overall ToxCast call; for Final "true" call (ToxCast) Aromatase inhibition: from ToxCast assays
Excerpt: as §2
Aromatase represents only one enzyme involved in steroidogenesis (the conversion of androgens to oestrogens); therefore, the aromatase assay detects effects on 17β-oestradiol production only. […] It is a cell-based assay in which MCF-7 cells are incubated with the test chemical for 24 h before measuring aromatase activities indirectly via a luciferase-based reporter endpoint which is dependent on the binding of the oestradiol–ER complex to the oestrogen response element. A decrease in luciferase activity can occur as a result of direct inhibition of aromatase (preventing the production of oestradiol) or by preventing oestradiol from binding to the ER and thus the binding to the oestrogen RE which initiates the production of luciferase (Lui et al. [2008]).

ER [8] = test system: ER; set-up: method as in US EPA ToxCast; details: ref US EPA ToxCast, cited from earlier work
H295R cells = test: H295R steroidogenesis assay (oestrogen and androgen production); format: cell-based, human; details: for minimal effective concentration: Homo sapiens, NCI-H295R, 48 h
Experimental: The in vitro H295R Steroidogenesis Assay is based on the human adenocarcinoma cell line, NCI-H295R, in which the human steroidogenesis pathway is fully functional (OECD 2022). The effect of the test chemical on the production of 17β-estradiol and testosterone is measured using ERα CALUX and AR CALUX technology.
The test chemical was tested in two independent assays, each in triplicate.

ER [9] = test system: ER; set-up: method as in Mansouri et al. 2016; details: ref Mansouri et al. 2016; cited from earlier work
aromatase [10] = test system: aromatase; set-up: method as in Lu et al. [2012]; details: recombinant and placental microsomal preparations; ref Lu et al. [2012]; cited from earlier work
AR [11] = test system: AR; set-up: method as in Park et al. [2021]; details: ref Park et al. [2021]; cited from earlier work
[12] = molecular target: T1, human recombinant CYP19A1 (Homo sapiens, UniProt P11511); test: Recombinant enzyme aromatase activity inhibition assay; format: biochemical; details: follow-up dose–response assay
T1 sequence (P11511 1-503): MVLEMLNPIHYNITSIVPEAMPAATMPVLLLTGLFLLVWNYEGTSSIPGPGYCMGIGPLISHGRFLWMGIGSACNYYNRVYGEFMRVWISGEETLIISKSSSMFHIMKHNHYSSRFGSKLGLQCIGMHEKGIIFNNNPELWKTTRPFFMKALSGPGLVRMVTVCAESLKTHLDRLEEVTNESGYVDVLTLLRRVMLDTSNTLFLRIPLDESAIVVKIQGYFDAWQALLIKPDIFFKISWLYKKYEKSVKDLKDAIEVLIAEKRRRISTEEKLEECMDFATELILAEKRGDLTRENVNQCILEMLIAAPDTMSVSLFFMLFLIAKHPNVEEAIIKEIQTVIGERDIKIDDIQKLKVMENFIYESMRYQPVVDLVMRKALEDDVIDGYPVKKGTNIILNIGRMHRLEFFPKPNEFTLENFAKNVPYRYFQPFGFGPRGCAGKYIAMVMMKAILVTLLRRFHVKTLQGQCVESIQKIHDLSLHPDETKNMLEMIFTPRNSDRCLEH
Experimental: An aromatase inhibition assay was also included in the in vitro assay panel. This enzyme – otherwise known as CYP19A1 - is responsible for converting androgens into estrogens (Blakemore and Naftolin 2016; Bulun 2014); therefore, chemicals that inhibit aromatase activity can lead to reduced estrogen production, which can affect reproductive and developmental processes (Kragie 2002; Tiboni and Ponzano 2016).
The metabolite, estradiol, was measured by time-resolved fluorescence according to the method described previously (Ji et al. 2014). Enzyme inhibition was calculated as a % inhibition of control enzyme activity.

human (non-selective) ER = test: ER radioligand ([3H]estradiol) receptor-binding assay; details: single-dose screening, 10 µM
Experimental: The chemicals were tested for their ability to bind to different targets. […] Chemicals were incubated at 10 µM with cells overexpressing ER or AR for 24 h at 4°C, after which, the binding of the radiolabeled ligand ([^3H]estradiol for ER and [^3H]methyltrienolone for AR) was measured by liquid scintillation counting. An increase or decrease higher than 50% were considered to represent significant effects. Four chemicals were tested in additional incubations at several concentrations up to the maximum soluble concentration for IC50 or EC50 determination for the associated target. Receptor binding was calculated as a % inhibition of the binding of a radioactively labeled ligand specific for each target.
Each test chemical was tested in a single assay in duplicate.

Solubility = format: physicochemical
[13] = read-out: Steroidogenesis Androgenicity LEC
[14] = read-out: Steroidogenesis Estrogenicity LEC
[15] = UPITT_HCI_U2OS_AR_TIF2_Nucleoli_Antagonist

Row | Compound | ToxCast Pathway Model (AUC) (ER [1]) | ToxCast Pathway Model interaction (ER [1]) | ToxCast conclusion from assays result (AR [3]) | ToxCast 1: (Active assays), number of positive assays / assays run (AR [3]) | ToxCast Pathway Model (AUC) (AR [4]) | Final "true" call (ToxCast) ER (ER [5]) | ToxCast result (ER) (ER [5]) | Final "true" call (ToxCast) (AR [6]) | ToxCast result (aromatase [7]) | Final "true" call (ToxCast) Aromatase inhibition (aromatase [7]) | ToxCast 1: (Active assays), positive/total ER assays (ER [8]) | ToxCast conclusion from assays result (ER [8]) | minimal effective concentration (H295R cells; [13]) | minimal effective concentration (H295R cells; [14]) | CERAPP Potency Level (ER [9]) | ToxCast (Aromatase assays), positive/total (aromatase [2]) | efficacy (assays Comments) (AR [3]; [15]) | other results
1 | C=CCc1ccc(O)c(OC)c1 [eugenol] | – | – | – | – | – | – | – | – | – | – | – | – | – | – | – | – | – | effect on MCF-7 cells (MCF-7 cells): cytotoxicity
2 | CC/C(=C(\c1ccccc1)c1ccc(OCCN(C)C)cc1)c1ccccc1 [Tamoxifen, reference compound] | 0.45 | significant interaction | Endocrine Disruption Potential.Significant Estrogen Receptor activity seen | 9/17 Positive | AUC = 0.042, then there is no significant interaction. | Positive for agonism and antagonism | ER agonist and antagonist | Inconclusive | Positive | Positive | 19/21 positive | Endocrine Disruption Potential.Significant Estrogen Receptor activity seen | > 3.16 µM | > 1 µM | Moderate antagonist | – | – | ToxCast (Aromatase assays), assay listed as active (aromatase [2]; each listed assay name = active assay): TOX21_Aromatase_Inhibition; also recorded: TOX21_Aromatase_Inhibition_viability; ToxCast 1: (assays Comments) (AR [3]; comment on all active AR assays): There is binding, but only one concentration above the baseline, (noisy data); aromatase inhibitory action (aromatase [10]): no appreciable inhibition
3 | isoeugenol | 0.0124 | no significant interaction | Endocrine Disruption Potential.Significant Estrogen Receptor activity seen | 1/14 positive | AUC = = 0, then there is no significant interaction. | Inconclusive | – | Negative | Negative | Negative | 9/19 positive | Endocrine Disruption Potential.Significant Estrogen Receptor activity seen | – | – | Weak agonist/ antagonist | 0/2 positive | Boarderline: less than 50% efficacy (48.8%) | AR antagonism and impact of metabolism (AR [11]): exhibits AR antagonism which is decreased by metabolism; ToxCast 1: (assays Comments) (AR [3]; [15]): Only highest concentration above the baseline; ToxCast Pathway model, interaction with the AR (AR [4]; ref Kleinstreuer et al. [2017]): insignificant; ToxCast result (AR [6]; AR overall call from Supplementary Table 4): Negative; Final "true" call (ToxCast) AR (AR [6]; from ToxCast assays and ToxCast Pathway Model): Negative; aromatase inhibition outcome [12]: positive; inhibition of control specific binding to the ER (human (non-selective) ER): less than -25%; ToxCast 1: (Comments), efficacy (ER [8]; borderline: less than 50% efficacy): Boarderline: less than 50% efficacy; LEC, oestrogen production (H295R cells; increase): 10 µM
4 | CCCCOC(=O)c1ccccc1C(=O)OCc1ccccc1 [BBP, benzyl butyl phthalate] | 0.18 | significant interaction | Endocrine Disruption Potential.Significant Estrogen Receptor activity seen | 2/14 positive | AUC = 0, then there is no significant interaction. | Positive for agonism | ER agonist only | Inconclusive | Negative | Negative | 14/21 positive | Endocrine Disruption Potential.Significant Estrogen Receptor activity seen | > 10 µM | > 10 µM | Very weak antagonist | 0/2 positive | Boarderline: less than 50% efficacy (48.9%) | efficacy (assays Comments) (AR [3]; TOX21_AR_LUC_MDAKB2_Antagonist_0.5nM_R1881): Boarderline: less than 50% efficacy (38.4%); solubility (Solubility): ~10 µM (≈ 3.12 µg/mL)
